ChEMBL document CHEMBL1201862, “PubChem BioAssay data set” (2004)
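Following 48 hours of exposure in 96-well plates, responses at five concentrations were used to interpolate endpoints linearly. Abbreviation: GI50, concentration required for 50% inhibition of growth.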 Calls of active or inactive are those of the source. Rule as the data show it: active = GI50 up to about 1.1 µM and inactive = higher.

Tests used:
Assay in all cases: growth of human tumour cells (NCI), 48 h
786-0 = tested on: 786-0
ACHN = tested on: ACHN
CAKI-1 = tested on: CAKI-1
COLO 205 = tested on: COLO 205
HCC 2998 = tested on: HCC 2998
HL-60 = tested on: HL-60
HOP-62 = tested on: HOP-62
HOP-92 = tested on: HOP-92
KM12 = tested on: KM12
LOX IMVI = tested on: LOX IMVI
MOLT-4 = tested on: MOLT-4
NCI-H460 = tested on: NCI-H460
NCI-H522 = tested on: NCI-H522
NCI/ADR-RES = tested on: NCI/ADR-RES
OVCAR-4 = tested on: OVCAR-4
SF-295 = tested on: SF-295
SF-539 = tested on: SF-539
SK-MEL-2 = tested on: SK-MEL-2
SNB-75 = tested on: SNB-75
UACC-62 = tested on: UACC-62

COc1cc(N(CCC#N)CCC#N)ccc1/C=C1\SC(=S)NC1=O
GI50 (786-0): > 100 µM (inactive)
GI50 (ACHN): > 100 µM (inactive)
GI50 (CAKI-1): > 100 µM (inactive)
GI50 (COLO 205): > 100 µM (inactive)
GI50 (HCC 2998): > 100 µM (inactive)
GI50 (HL-60): > 100 µM (inactive)
GI50 (HOP-62): > 100 µM (inactive)
GI50 (HOP-92): > 100 µM (inactive)
GI50 (KM12): > 100 µM (inactive)
GI50 (LOX IMVI): > 100 µM (inactive)
GI50 (MOLT-4): > 100 µM (inactive)
GI50 (NCI-H460): > 100 µM (inactive)
GI50 (NCI-H522): > 100 µM (inactive)
GI50 (NCI/ADR-RES): > 100 µM (inactive)
GI50 (OVCAR-4): > 100 µM (inactive)
GI50 (SF-295): > 100 µM (inactive)
GI50 (SF-539): > 100 µM (inactive)
GI50 (SK-MEL-2): > 100 µM (inactive)
GI50 (SNB-75): > 100 µM (inactive)
GI50 (UACC-62): > 100 µM (inactive)

CC(C)(Br)C(Br)CC/C(=C/CBr)CBr.CC(C)(Br)C(Br)CC/C(=C\CBr)CBr (stereo not given)
GI50 (786-0): 1.95 µM (inactive)
GI50 (ACHN): 5.83 µM (inactive)
GI50 (CAKI-1): 9.91 µM (inactive)
GI50 (COLO 205): 3.27 µM (inactive)
GI50 (HCC 2998): 13.5 µM (inactive)
GI50 (HL-60): 0.553 µM (active)
GI50 (HOP-62): 2.89 µM (inactive)
GI50 (HOP-92): 4.33 µM (inactive)
GI50 (KM12): 4.16 µM (inactive)
GI50 (LOX IMVI): 0.13 µM (active)
GI50 (MOLT-4): 2.1 µM (inactive)
GI50 (NCI-H460): 3.21 µM (inactive)
GI50 (NCI-H522): 1.66 µM (inactive)
GI50 (NCI/ADR-RES): 3.11 µM (inactive)
GI50 (OVCAR-4): 5.2 µM (inactive)
GI50 (SF-295): 3.46 µM (inactive)
GI50 (SF-539): 4.66 µM (inactive)
GI50 (SK-MEL-2): 3.19 µM (inactive)
GI50 (SNB-75): 3.98 µM (inactive)
GI50 (UACC-62): 2.05 µM (inactive)

CNC(=O)Nc1ccccc1
GI50 (786-0): > 100 µM (inactive)
GI50 (ACHN): > 100 µM (inactive)
GI50 (CAKI-1): > 100 µM (inactive)
GI50 (COLO 205): > 100 µM (inactive)
GI50 (HCC 2998): > 100 µM (inactive)
GI50 (HL-60): > 100 µM (inactive)
GI50 (HOP-62): > 100 µM (inactive)
GI50 (HOP-92): > 100 µM (inactive)
GI50 (KM12): > 100 µM (inactive)
GI50 (LOX IMVI): > 100 µM (inactive)
GI50 (MOLT-4): > 100 µM (inactive)
GI50 (NCI-H460): > 100 µM (inactive)
GI50 (NCI-H522): > 100 µM (inactive)
GI50 (NCI/ADR-RES): > 100 µM (inactive)
GI50 (OVCAR-4): > 100 µM (inactive)
GI50 (SF-295): > 100 µM (inactive)
GI50 (SF-539): > 100 µM (inactive)
GI50 (SK-MEL-2): > 100 µM (inactive)
GI50 (SNB-75): > 74.6 µM (inactive)
GI50 (UACC-62): > 100 µM (inactive)

COc1cc(/C=C/c2ccc(/C=C/c3cc(OC)c(OC)c(OC)c3)cc2)cc(OC)c1OC
GI50 (786-0): 7.94 µM (inactive)
GI50 (ACHN): 16.3 µM (inactive)
GI50 (CAKI-1): 21.6 µM (inactive)
GI50 (COLO 205): 51.3 µM (inactive)
GI50 (HCC 2998): 22.2 µM (inactive)
GI50 (HL-60): > 66.5 µM (inactive)
GI50 (HOP-62): 16.6 µM (inactive)
GI50 (HOP-92): 15.4 µM (inactive)
GI50 (KM12): 29.5 µM (inactive)
GI50 (LOX IMVI): 34.4 µM (inactive)
GI50 (MOLT-4): > 100 µM (inactive)
GI50 (NCI-H460): 25.5 µM (inactive)
GI50 (NCI-H522): 8.11 µM (inactive)
GI50 (NCI/ADR-RES): 22.2 µM (inactive)
GI50 (OVCAR-4): 3.98 µM (inactive)
GI50 (SF-295): 10.9 µM (inactive)
GI50 (SF-539): 4.6 µM (inactive)
GI50 (SK-MEL-2): 20.7 µM (inactive)
GI50 (SNB-75): 6.34 µM (inactive)
GI50 (UACC-62): 7.89 µM (inactive)

Cc1ccc(-c2nc3cc([N+](=O)[O-])ccc3[nH]2)cc1
GI50 (786-0): > 100 µM (inactive)
GI50 (ACHN): 53 µM (inactive)
GI50 (CAKI-1): 38 µM (inactive)
GI50 (COLO 205): 72.9 µM (inactive)
GI50 (HCC 2998): 43.4 µM (inactive)
GI50 (HL-60): 45.3 µM (inactive)
GI50 (HOP-62): > 100 µM (inactive)
GI50 (HOP-92): > 100 µM (inactive)
GI50 (KM12): 54 µM (inactive)
GI50 (LOX IMVI): 80.5 µM (inactive)
GI50 (MOLT-4): 47.4 µM (inactive)
GI50 (NCI-H460): 42.8 µM (inactive)
GI50 (NCI-H522): 41.7 µM (inactive)
GI50 (NCI/ADR-RES): 40.8 µM (inactive)
GI50 (OVCAR-4): 81.8 µM (inactive)
GI50 (SF-295): 63 µM (inactive)
GI50 (SF-539): > 100 µM (inactive)
GI50 (SK-MEL-2): > 100 µM (inactive)
GI50 (SNB-75): > 100 µM (inactive)
GI50 (UACC-62): > 100 µM (inactive)

O=c1[nH]c2cc(C(F)(F)F)ccc2nc1CBr
GI50 (786-0): 6.62 µM (inactive)
GI50 (ACHN): 7.19 µM (inactive)
GI50 (CAKI-1): 6.25 µM (inactive)
GI50 (COLO 205): 8.02 µM (inactive)
GI50 (HCC 2998): 17.8 µM (inactive)
GI50 (HL-60): 2.69 µM (inactive)
GI50 (HOP-62): 8.05 µM (inactive)
GI50 (HOP-92): 2.79 µM (inactive)
GI50 (KM12): 14.9 µM (inactive)
GI50 (LOX IMVI): 1.82 µM (inactive)
GI50 (MOLT-4): 1.56 µM (inactive)
GI50 (NCI-H460): 13.9 µM (inactive)
GI50 (NCI-H522): 0.36 µM (active)
GI50 (NCI/ADR-RES): 17.4 µM (inactive)
GI50 (OVCAR-4): 15.7 µM (inactive)
GI50 (SF-295): 14.9 µM (inactive)
GI50 (SF-539): 8.41 µM (inactive)
GI50 (SK-MEL-2): 12.2 µM (inactive)
GI50 (SNB-75): 16.6 µM (inactive)
GI50 (UACC-62): 9.51 µM (inactive)

COc1ccc(-c2oc3c(OC)c(OC)c(OC)c(O)c3c(=O)c2OC)cc1OC
GI50 (786-0): 25.4 µM (inactive)
GI50 (ACHN): 25 µM (inactive)
GI50 (CAKI-1): 40.4 µM (inactive)
GI50 (COLO 205): 25.8 µM (inactive)
GI50 (HCC 2998): 19.3 µM (inactive)
GI50 (HL-60): 6.81 µM (inactive)
GI50 (HOP-62): 19.5 µM (inactive)
GI50 (HOP-92): 0.243 µM (active)
GI50 (KM12): 24.4 µM (inactive)
GI50 (LOX IMVI): 11 µM (inactive)
GI50 (MOLT-4): 15.5 µM (inactive)
GI50 (NCI-H460): 17.8 µM (inactive)
GI50 (NCI-H522): 14.3 µM (inactive)
GI50 (NCI/ADR-RES): 13.3 µM (inactive)
GI50 (OVCAR-4): 26.5 µM (inactive)
GI50 (SF-295): 22 µM (inactive)
GI50 (SF-539): 19.4 µM (inactive)
GI50 (SK-MEL-2): 15.1 µM (inactive)
GI50 (SNB-75): 1.66 µM (inactive)
GI50 (UACC-62): 21.8 µM (inactive)

Cn1cnc([N+](=O)[O-])c1Sc1nc(N)nc2c1ncn2C1OC(CO)C(O)C1O (stereo not given)
GI50 (786-0): 3.14 µM (inactive)
GI50 (ACHN): 9.04 µM (inactive)
GI50 (CAKI-1): 6.19 µM (inactive)
GI50 (COLO 205): 7.83 µM (inactive)
GI50 (HCC 2998): 2.77 µM (inactive)
GI50 (HL-60): 9.44 µM (inactive)
GI50 (HOP-62): 1.44 µM (inactive)
GI50 (HOP-92): 1.33 µM (inactive)
GI50 (KM12): 5.51 µM (inactive)
GI50 (LOX IMVI): 1.09 µM (active)
GI50 (MOLT-4): 5 µM (inactive)
GI50 (NCI-H460): 1.69 µM (inactive)
GI50 (NCI-H522): 9.38 µM (inactive)
GI50 (NCI/ADR-RES): 0.182 µM (active)
GI50 (OVCAR-4): 16.4 µM (inactive)
GI50 (SF-295): 3.46 µM (inactive)
GI50 (SF-539): 2.9 µM (inactive)
GI50 (SK-MEL-2): 0.497 µM (active)
GI50 (SNB-75): 6.44 µM (inactive)
GI50 (UACC-62): 2.53 µM (inactive)

O=C(CCN1CCCC1)Nc1ccc2sc3ccccc3c(=O)c2n1
GI50 (786-0): 11.7 µM (inactive)
GI50 (ACHN): 11.5 µM (inactive)
GI50 (CAKI-1): 11.5 µM (inactive)
GI50 (COLO 205): 11.1 µM (inactive)
GI50 (HCC 2998): 12.3 µM (inactive)
GI50 (HL-60): 10.3 µM (inactive)
GI50 (HOP-62): 12.3 µM (inactive)
GI50 (HOP-92): 18.1 µM (inactive)
GI50 (KM12): 12.8 µM (inactive)
GI50 (LOX IMVI): > 10 µM (inactive)
GI50 (MOLT-4): 4.72 µM (inactive)
GI50 (NCI-H460): > 10 µM (inactive)
GI50 (NCI-H522): 10.5 µM (inactive)
GI50 (NCI/ADR-RES): 13.3 µM (inactive)
GI50 (OVCAR-4): 13.2 µM (inactive)
GI50 (SF-295): 14.8 µM (inactive)
GI50 (SF-539): 12.6 µM (inactive)
GI50 (SK-MEL-2): 13.3 µM (inactive)
GI50 (SNB-75): 11.8 µM (inactive)
GI50 (UACC-62): 12.6 µM (inactive)

CN(C)C(=S)/N=c1\ssc(=S)n1Cc1cccnc1
GI50 (786-0): 4.07 µM (inactive)
GI50 (ACHN): 6.76 µM (inactive)
GI50 (CAKI-1): 3.16 µM (inactive)
GI50 (COLO 205): 2.2 µM (inactive)
GI50 (HCC 2998): 2.54 µM (inactive)
GI50 (HL-60): 1.76 µM (inactive)
GI50 (HOP-62): 4.91 µM (inactive)
GI50 (HOP-92): 3.81 µM (inactive)
GI50 (KM12): 1 µM (active)
GI50 (LOX IMVI): 4.27 µM (inactive)
GI50 (MOLT-4): 6.46 µM (inactive)
GI50 (NCI-H460): 2.81 µM (inactive)
GI50 (NCI-H522): 0.531 µM (active)
GI50 (NCI/ADR-RES): 1.01 µM (active)
GI50 (OVCAR-4): 19.3 µM (inactive)
GI50 (SF-295): 1.81 µM (inactive)
GI50 (SF-539): 4.02 µM (inactive)
GI50 (SK-MEL-2): 2.29 µM (inactive)
GI50 (SNB-75): 1.91 µM (inactive)
GI50 (UACC-62): 2.17 µM (inactive)
